pIC50: −log10 of the molar value.
Target: T1, VEGFR-2 (Homo sapiens, UniProt P35968)
T1 construct: gene KDR; biotin-labeled VEGFR-2 (Prospec)
Experiment: in vitro tyrosine kinase ELISA
Format: biochemical

T1 sequence (P35968 20-1356): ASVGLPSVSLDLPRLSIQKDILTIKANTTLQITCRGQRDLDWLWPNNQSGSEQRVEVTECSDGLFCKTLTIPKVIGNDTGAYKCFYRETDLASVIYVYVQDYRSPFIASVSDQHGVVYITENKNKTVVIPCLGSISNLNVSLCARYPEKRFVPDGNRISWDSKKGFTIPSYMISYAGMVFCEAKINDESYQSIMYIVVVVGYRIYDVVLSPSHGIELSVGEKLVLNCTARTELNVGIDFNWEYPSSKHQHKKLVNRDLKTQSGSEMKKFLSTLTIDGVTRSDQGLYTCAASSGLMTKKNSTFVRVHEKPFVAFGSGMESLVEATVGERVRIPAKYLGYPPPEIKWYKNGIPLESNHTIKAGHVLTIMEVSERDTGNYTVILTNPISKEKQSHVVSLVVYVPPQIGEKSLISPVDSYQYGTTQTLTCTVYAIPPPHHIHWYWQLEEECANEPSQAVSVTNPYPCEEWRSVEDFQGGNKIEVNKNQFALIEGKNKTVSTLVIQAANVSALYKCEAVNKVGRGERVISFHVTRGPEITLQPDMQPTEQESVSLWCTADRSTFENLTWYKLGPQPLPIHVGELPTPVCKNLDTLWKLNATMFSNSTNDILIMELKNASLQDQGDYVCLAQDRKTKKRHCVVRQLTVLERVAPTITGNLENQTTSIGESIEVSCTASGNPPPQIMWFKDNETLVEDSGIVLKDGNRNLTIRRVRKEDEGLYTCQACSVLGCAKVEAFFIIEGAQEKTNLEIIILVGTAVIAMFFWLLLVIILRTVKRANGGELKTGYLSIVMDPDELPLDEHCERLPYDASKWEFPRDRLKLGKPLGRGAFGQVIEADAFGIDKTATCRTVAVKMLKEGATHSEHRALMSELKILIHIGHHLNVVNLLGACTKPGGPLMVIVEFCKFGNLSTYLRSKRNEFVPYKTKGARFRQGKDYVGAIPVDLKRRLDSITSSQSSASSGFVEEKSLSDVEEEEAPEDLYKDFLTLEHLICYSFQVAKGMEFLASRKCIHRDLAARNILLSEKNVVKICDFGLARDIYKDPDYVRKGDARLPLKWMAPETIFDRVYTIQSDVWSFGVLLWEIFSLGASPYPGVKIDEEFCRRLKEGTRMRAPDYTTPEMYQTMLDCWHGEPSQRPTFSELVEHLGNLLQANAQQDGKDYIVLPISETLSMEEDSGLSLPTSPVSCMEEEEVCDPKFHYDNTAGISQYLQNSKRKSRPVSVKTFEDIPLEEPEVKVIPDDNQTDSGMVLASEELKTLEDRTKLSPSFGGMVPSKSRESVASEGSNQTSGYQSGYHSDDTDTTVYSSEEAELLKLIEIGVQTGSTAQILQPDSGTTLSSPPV

Compound `O=C(/C=C/c1ccc(O)cc1)c1ccc(O)cc1O` [ISL, Isoliquiritigenin] has a pIC50 of about 7.00.

Reference: PMC3702614, “Dietary Compound Isoliquiritigenin Inhibits Breast Cancer Neoangiogenesis via VEGF/VEGFR-2 Signaling Pathway” (PLoS ONE, 2013)
